Results from ChEMBL document CHEMBL5576102, “Characterization of Sesquiterpene Dimers from the Flowers of Inula japonica and the Structural Revisions of Related Compounds” (J Nat Prod, 2024).

Legend:
RAW264.7 [1] = experiment: Cytotoxicity against mouse RAW264.7 cells upto 50 uM measured after 48 hrs by MTT assay; format: toxicity, cell-based; conditions: raw264.7, 48 h
RAW264.7 [2] = experiment: Anti-inflammatory activity in LPS-stimulated mouse RAW264.7 cells assessed as inhibition of NO production measured after 48 hrs by Griess assay; format: functional, cell-based; conditions: RAW264.7, 48 h
RAW264.7 [3] = experiment: Cytotoxicity against mouse RAW264.7 cells at 6.25 to 3.125 uM measured after 48 hrs by MTT assay; format: toxicity, cell-based; conditions: raw264.7, 48 h, dose 6.25-3.125 µM
RAW264.7 [4] = experiment: Cytotoxicity against mouse RAW264.7 cells upto 25 uM measured after 48 hrs by MTT assay; format: toxicity, cell-based; conditions: raw264.7, 48 h

Compound | Activity (RAW264.7 [1]) | IC50 (RAW264.7 [2]) | Activity (RAW264.7 [3]) | Activity (RAW264.7 [4])
CC(=O)OCCC[C@H](C)c1cc([C@@]2(C(=O)O)CC[C@H](C(=O)O)c3cc([C@@H](C)CCCOC(C)=O)c(C)cc32)ccc1C | Non-Toxic | > 50 µM |  | 
C[C@]12CCC(=O)C=C1CC[C@@H]1[C@@H]2[C@@H](O)C[C@@]2(C)[C@H]1CC[C@]2(O)C(=O)COC(=O)CCC(=O)O [HYDROCORTISONE SODIUM SUCCINATE] |  | 44 µM |  | 
C=C1C[C@H]2OC(=O)[C@@]3(C[C@]45C(=C(C)[C@H]3[C@@H]4OC(C)=O)C[C@@H]3C(=C)C(=O)O[C@H]3C[C@@H]5C)[C@H]2C=C1[C@@H](C)CCCOC(C)=O |  | > 50 µM | Non-Toxic | 
C=C1C(=O)O[C@H]2C[C@H](C)[C@@]34C[C@@]5(C(=O)O[C@@H]6C[C@](C)(O)C([C@@H](C)CCCOC(C)=O)=C[C@@H]65)[C@@H](C(C)=C3C[C@H]12)[C@@H]4OC(C)=O |  | 4.07 µM |  | Non-Toxic
CC(=O)OCCC[C@H](C)C1=C(C)C[C@H]2OC(=O)[C@@]3(C[C@]45C(=C(C)[C@H]3[C@@H]4OC(C)=O)C[C@H]3[C@H](C[C@@H]5C)OC(=O)[C@H]3C)[C@H]2[C@@H]1O |  | 5.73 µM |  | Non-Toxic
C=C1C(=O)O[C@H]2C[C@H](C)[C@@]34C[C@](C(=O)O)(c5ccc(C)c([C@@H](C)CCCO)c5)[C@@H](C(C)=C3C[C@H]12)[C@@H]4OC(C)=O | Non-Toxic | 7.82 µM |  | 
CC(=O)OCCC[C@H](C)c1cc([C@@]2(C(=O)O)CC[C@H](C(=O)O)c3cc([C@@H](C)CCCO)c(C)cc32)ccc1C | Non-Toxic | > 50 µM |  | 
CC(=O)O[C@H]1[C@@H]2C(C)=C3C[C@H]4[C@H](C[C@H](C)[C@@]31C[C@@]21C(=O)O[C@@H]2C[C@@](C)(O)C([C@@H](C)CCCO)=C[C@@H]21)OC(=O)[C@H]4C | Non-Toxic | > 50 µM |  | 
Cc1ccc([C@@]2(C(=O)O)CC[C@H](C(=O)O)c3cc([C@@H](C)CCCO)c(C)cc32)cc1[C@@H](C)CCCO | Non-Toxic | > 50 µM |  | 
C=C1C(=O)O[C@H]2C[C@H](C)[C@@]34C[C@@]5(C(=O)O[C@@H]6C[C@@](C)(O)C([C@@H](C)CCCO)=C[C@@H]65)[C@@H](C(C)=C3C[C@H]12)[C@@H]4OC(C)=O | Non-Toxic | 10 µM |  | 
CC(=O)O[C@H]1[C@@H]2C(C)=C3C[C@H]4[C@H](C[C@H](C)[C@@]31C[C@]2(C(=O)O)c1ccc(C)c([C@@H](C)CCCO)c1)OC(=O)[C@H]4C | Non-Toxic | > 50 µM |  | 
